Data as given in patent US9156811B2 (priority 2008, dated 2015).

system: Trypanosome (T. brucei brucei); assay: In-vitro antitrypanosomal efficacy assay (cell growth, resazurin); type: cell-based; details: T. brucei brucei, blood stream form, variant 221
Procedure: To column 12, 200 μl media was added to provide a no cells control. Plates were then incubated at 37° C. in an atmosphere of 5% CO2 for 69 hours, before the addition of 20 μl of 500 μM rezasurin solution, and a further incubation period of 4 hours. […] Concentration effect curves were fitted using non-linear regression using XLFit 4.2 and EC50 values determined.

SMILES	ED50 (μM) T. brucei
Cc1nn(C)c(C)c1N(CC(F)(F)F)[S+](=O)([O-])c1c(Cl)cc(CCCN2CCCN(C)CC2)cc1Cl [DDD100157]	0.014 µM
CCN(c1c(C)nn(C)c1C)[S+](=O)([O-])c1c(Cl)cc(CCCC2CCN(C)CC2)cc1Cl [DDD100088]	0.003 µM
Cc1nn(C)c(C)c1N(C)[S+](=O)([O-])c1ccc(CCCCCCCN(C)C)cc1 [DDD99825]	0.054 µM
Cc1nn(C)c(C)c1N(CC(F)F)[S+](=O)([O-])c1c(Cl)cc(CCCOC2CCN(C)CC2)cc1Cl [DDD100161]	0.006 µM
Cc1c(N[S+](=O)([O-])c2ccc(-c3cccc(C(C)(C)N)c3)cc2)c(CC(C)C)nn1C [DDD100870]	0.013 µM
Cc1nn(C)c(C)c1N(CC(F)(F)F)[S+](=O)([O-])c1c(Cl)cc(CCCCC2CCNCC2)cc1Cl [DDD100167]	0.014 µM
Cc1c(N[S+](=O)([O-])c2ccc(-c3ccc(OC(F)(F)F)c(CN(C)C)c3)cc2)c(CC(C)C)nn1C [DDD100140]	>1 µM
Cc1nn(C)c(C)c1N(CC(F)(F)F)[S+](=O)([O-])c1c(Cl)cc(CCCCC2CCN(C)CC2)cc1Cl [DDD100165]	0.020 µM
Cc1nn(C)c(C)c1N(CC(F)(F)F)[S+](=O)([O-])c1c(Cl)cc(CCCOC2CCN(C)CC2)cc1Cl [DDD100803]	0.008 µM
Cc1c(N(C(F)F)[S+](=O)([O-])c2c(Cl)cc(-c3ccnc(N4CCNCC4)c3)cc2Cl)c(CC(C)C)nn1C [DDD100886]	0.004 µM
Cc1nn(C)c(C)c1N[S+](=O)([O-])c1ccc(CCCCC2CCN(C)CC2)cc1 [DDD99830]	0.020 µM
Cc1c(N[S+](=O)([O-])c2ccc(-c3ccc(F)c(CN(C)C)c3)cc2)c(CC(C)C)nn1C [DDD99832]	0.010 µM
Cc1nn(C)c(C)c1N(C(F)F)[S+](=O)([O-])c1c(Cl)cc(CCCN2CCCNCC2)cc1Cl [DDD100166]	0.002 µM
Cc1nn(C)c(C)c1N(C(F)F)[S+](=O)([O-])c1c(Cl)cc(CCCCCCn2ccnc2C)cc1Cl [DDD100795]	0.005 µM

same assay, conditions: T. brucei cell growth

SMILES	ED50 (μM) T. brucei
Cc1ccc(SCc2ccc([S+](=O)([O-])Nc3c(C)nn(C)c3C)cc2)cc1 [DDD85642]	>1 µM
Cc1nn(C)c(C)c1N[S+](=O)([O-])c1c(Cl)cc(-c2ccc(OC(F)(F)F)cc2)cc1Cl [DDD73323]	>1 µM
CCN(c1c(C)nn(C)c1C)[S+](=O)([O-])c1c(Cl)cc(-c2ccnc(N3CCNCC3)c2)cc1Cl [DDD88646]	0.002 µM
CNCc1cccc(-c2ccc([S+](=O)([O-])Nc3c(CC(C)C)nn(C)c3C)cc2)c1 [DDD99748]	0.036 µM
CCN(CC)Cc1ccccc1-c1ccc([S+](=O)([O-])Nc2c(C)nn(C)c2C)cc1 [DDD87758, 2′-Diethylaminomethyl-biphenyl-4-sulfonic acid (1,3,5-trimethyl-1H-pyrazol-4-yl)-amide]	>1 µM
Cc1nn(C)c(C)c1N(CC(F)(F)F)[S+](=O)([O-])c1ccc(-c2ccnc(N3CCNCC3)c2)cc1 [DDD88645]	0.021 µM
Cc1nn(C)c(C)c1N[S+](=O)([O-])c1ccc(NCCc2ccccc2)nc1 [DDD73319]	8.4 µM
Cc1nn(C)c(C)c1N[S+](=O)([O-])c1c(Cl)cc(CCCC2CCNCC2)cc1Cl [DDD99759]	0.003 µM
Cc1nn(C)c(C)c1N[S+](=O)([O-])c1c(F)cc(Br)cc1F [DDD88317]	>10 µM
Cc1nn(C)c(C)c1N[S+](=O)([O-])c1ccc(NC2CCN(Cc3ccccc3)C2)nc1 (centres unmarked) [DDD86294]	>1 µM
Cc1nn(C)c(C)c1N[S+](=O)([O-])c1c(Cl)cc(-c2ccnc(Cl)c2)cc1Cl [DDD86209, 2,6-Dichloro-4-(2-chloro-pyridin-4-yl)-N-(1,3,5-trimethyl-1H-pyrazol-4-yl)-benzenesulfonamide]	>1 µM
Cc1nn(C)c(C)c1N[S+](=O)([O-])c1ccc(Br)cc1Cl [DDD86208, 4-Bromo-2-chloro-N-(1,3,5-trimethyl-1H-pyrazol-4-yl)-benzenesulfonamide]	>1 µM
Cc1nn(C)c(C)c1N[S+](=O)([O-])c1ccc(CCCN2CCN(C)CC2)cc1 [DDD88191, 4-[3-(4-Methyl-piperazin-1-yl)-propyl]-N-(1,3,5-trimethyl-1H-pyrazol-4-yl)-benzenesulfonamide]	0.67 µM
Cc1nn(C)c(C)c1N[S+](=O)([O-])c1ccc(CNC(=O)c2ccc(Cl)cc2)s1 [DDD73224]	>1 µM
Cc1nn(C)c(C)c1N[S+](=O)([O-])c1ccc(NC2CCNC2)nc1 (centres unmarked) [DDD86296]	>1 µM
Cc1nn(C)c(C)c1N[S+](=O)([O-])c1ccc(N2CCC(N3CCCCC3)C2)nc1 (centres unmarked) [DDD86477]	>1 µM
Cc1nn(C)c(C)c1N[S+](=O)([O-])c1c(Cl)cc(-c2cccc(CN3CCCC3)c2)cc1Cl [DDD88009, 3,5-Dichloro-3′-pyrrolidin-1-ylmethyl-biphenyl-4-sulfonic acid (1,3,5-trimethyl-1H-pyrazol-4-yl)-amide]	0.10 µM
CCN(CC)Cc1cccc(-c2ccc([S+](=O)([O-])Nc3c(C)nn(C)c3C)cc2)c1 [DDD86312, 3′-Diethylaminomethyl-biphenyl-4-sulfonic acid (1,3,5-trimethyl-1H-pyrazol-4-yl)-amide]	0.07 µM
Cc1nn(C)cc1N[S+](=O)([O-])c1ccc(-c2ccnc(N3CCNCC3)c2)cc1 [DDD86471, N-(1,3-Dimethyl-1H-pyrazol-4-yl)-4-(2-piperazin-1-yl-pyridin-4-yl)-benzenesulfonamide]	0.009 µM
Cc1c(N[S+](=O)([O-])c2ccc(-c3cccc(CN4CCCC4)c3)cc2)c(CC(C)C)nn1C [DDD99739]	0.058 µM
Cc1nn(C)c(CC(C)C)c1N[S+](=O)([O-])c1c(Cl)cc(Br)cc1Cl [DDD88197, 4-Bromo-2,6-dichloro-N-(5-isobutyl-1,3-dimethyl-1H-pyrazol-4-yl)-benzenesulfonamide]	45.9 µM
Cc1nn(C)c(C)c1N(C)[S+](=O)([O-])c1c(Cl)cc(CCCN2CCN(C)CC2)cc1Cl [DDD88644]	0.012 µM
Cc1nn(C)c(C)c1N[S+](=O)([O-])c1c(Cl)cccc1Cl [DDD71239]	23.2 µM
Cc1nn(C)c(C)c1N(C)[S+](=O)([O-])c1c(Cl)cc(-c2cccc(CN3CCN(C)CC3)c2)cc1Cl [DDD90118]	0.015 µM
Cc1nn(C)c(C)c1N[S+](=O)([O-])c1c(Cl)cc(-c2ccnc(NCCN(C)C)c2)cc1Cl [DDD86309, 2,6-Dichloro-4-[2-(2-dimethylamino-ethylamino)-pyridin-4-yl]-N-(1,3,5-trimethyl-1H-pyrazol-4-yl)-benzenesulfonamide]	>1 µM
Cc1nn(C)c(C)c1NS(=O)(=O)c1ccc(C#CCCC2CCN(C)CC2)cc1 [DDD99761]	0.240 µM
Cc1nn(C)c(C)c1N[S+](=O)([O-])c1ccc(CCCC2CCN(C)CC2)cc1 [DDD88559]	0.038 µM
